Experiments:
[1] = Luminol dependent chemiluminescence activated by directly injected peroxynitrite; format: biochemical; settings: for inhibition of peroxynitrite-based luminol light: 1000 fold dilution; for relative antioxidant activity among the catechins tested: peroxynitrite or SIN-1 based light
Procedure: The end product of purine metabolism in humans is uric acid. This substance is an excellent antioxidant that can interact directly with nearby peroxynitrite. Figure 2 is a graph depicting interaction of peroxynitrite and uric acid and the inhibition of peroxynitrite based chemiluminescence. Figure 2 illustrates the oxidative reaction of peroxynitrite an luminol to produce light (chemiluminescence) and the interference with light which is produced by uric acid at a concentration of 10 µM. […] Allantoin is the end product of purine metabolism in animals except for man, great apes and some dalmatian dogs. […] Such an oxidant occurs most likely through peroxynitrite or possibly hypochlorite.
(§1) We studied the effect of Green tea leaf extract on peroxynitrite. This study is based on a simple chemical interaction of peroxynitrite (OONO-) and luminol which produces blue light upon oxidation. […] In addition peroxynitrite itself was used directly with a fast injection-mixing system to ascertain if there might be differences between it and the peroxynitrite generating system (SIN-1) which mimics the natural production of (OONO-). […] Upon the stimulation of inflammation and/or infection, macrophages and neutrophils can be stimulated to produce large amounts of peroxynitrite.
(§2) The antioxidant effect of green tea and some of its constituents against luminol dependent chemiluminesence activated by peroxynitrite. Since peroxynitrite oxidizes luminol to an intermediate that produces light, antioxidants will inhibit this blue light by interfering with the oxidation of the luminol. In addition, we used SIN-1 which produces both superoxide and nitric oxide which combine to produce peroxynitrite. […] The purpose of this study was to measure the antioxidant activity of green tea extract and some of its prominent polyphenols. This is accomplished by using the antioxidants to oppose the oxidation of luminol by peroxynitrite thereby inhibiting the production of blue light.
(§3) Three sydnonimine congeners are known to produce both nitric oxide and superoxide and then combine to produce peroxynitrite (ONOO). […] It was kept on ice and maintained its activity for several hours of the experiment. Peroxynitrite (approx 50 mM) was diluted 1/1000 with water. The original solution is supplied in 0.3M NaOH and this stabilizes the compound. Once diluted it must be kept on ice and used quickly, especially after dilution. When the diluted OONO- is injected into the PBS buffer at pH=7.4. […] However, the slower reaction with SIN-1 gives an opportunity to dissect the reaction into its component parts, since rapid reaction and injection/mixing are not so crucial.
(§4) The luminol was obtained from Sigma Chemical Company, St. Louis, Mo. It was dissolved first in one ml DMSO and then diluted to produce a stock solution (10^-4M) in 0.1 M Phosphate buffered saline at a pH of 7.4.
(§5) The luminometer tube was placed in a Berthold model LB9505C tube-6 channel luminometer with the temperature control set at 37°C and the light reaction was measured for 20 minutes. Peroxynitrite reacts with luminol directly and was injected using an essentially pressure-independent injection device, which injects 1/50 of it's total volume (2500 µm) of a gas tight syringe, made by the Hamilton Co. (pat. # 3161323) in Whittier, CA, to produce a blue light at 425 nm, which corresponds to the most sensitive detection range of the photomultipliers for this luminometer. The injection device was linked to a gastight 2500 microliter syringe with a fixed needle of 5.2 cm. This length of needle was necessary to penetrate the septum of the ports of the 6 channel Berthold Luminometer and to extend into the tube far enough to produce reproducible mixing necessary because of the short half-life of peroxynitrite. In Fig. 7, repetitive injections of peroxynitrite are shown giving the light generated over a one minute time period which was acquired, plotted and integrated with an IBM clone computer running KINB software. […]

[2] = Luminol dependent chemiluminescence activated by SIN-1 (peroxynitrite generator); format: biochemical
Text: as §1, §2, §3, §4
Green tea powdered extract was purchased from Pharmanex, Simi Valley, California. 250mg was dissolved in 10ml of phosphate buffered saline (PBS) with pH of 7.4 and used as a stock solution. Dilutions were made using PBS and samples from this original stock solution were diluted every ten fold from one to a million (six samples).
A control solution was also used to provide a reference to the light stimulation produced by the combination of SIN-1 and luminol.
as §5, with “software. In the case of SIN-1, the ingredients were mixed prior to assay, with SIN-1 added fast. The assay is reported as counts per minute integrated over the 20 minute time period.” for “software.”

[3] = cited from earlier work; for uricosuric effect / uric acid levels in the blood: normal, hyperuricemic and gouty humans; for abilities to increase uric acid levels: nucleotides compared to nucleosides; for increasing blood uric acid levels: nucleotides compared with DNA and RNA
[4] = administered in large amounts (95 mg/kg); oxidized to 2,8 dihydroxyadenine; cited from earlier work
[5] = system: allergic encephalomyelitis (EAE); settings: mice, 500 mg/kg four times a day, started before or after clinical symptoms of EAE; cited from earlier work
[6] = cited from earlier work
[7] = 1:1000 dilution (stock 0.45 mMolar)
[8] = 1:100 dilution from stock at 0.45 mMolar

Oc1cc(O)c2c(c1)OC(c1ccc(O)c(O)c1)C(O)C2 (racemic) [racemic catechin, (±) catechin]
inhibition of peroxynitrite-based light ([1]; 1:10,000 dilution): 50% | inhibition of peroxynitrite-based light ([1]; 1:10,000 dilution, listed as Racemic catechin): about 50% | inhibition of peroxynitrite-based light ([1]; 1:100,000 dilution): 50% | inhibition of peroxynitrite-based luminol light [1]: about 50% | relative antioxidant activity among the catechins tested [1]: very active | inhibition of SIN-1 activated luminol light [2, 7]: 50% | inhibition of SIN-1 activated luminol light ([2]; 1:1000 dilution (stock 0.45 mMolar), listed as Racemic catechin): about 50% | inhibition of SIN-1 activated luminol light ([2]; 10 fold dilutions after 1:1000): little inhibition

Nc1ncnc2c1ncn2[C@@H]1O[C@H](COP(=O)(O)O)[C@@H](O)[C@H]1O [AMP]
uricosuric effect / uric acid levels in the blood [3]: raised uric acid levels in the blood | abilities to increase uric acid levels [3]: equivalent | increasing blood uric acid levels [3]: more effective than DNA and RNA

Nc1nc2c(ncn2[C@@H]2O[C@H](COP(=O)(O)O)[C@@H](O)[C@H]2O)c(=O)[nH]1 [GMP]
uricosuric effect / uric acid levels in the blood [3]: raised uric acid levels in the blood | abilities to increase uric acid levels [3]: equivalent | increasing blood uric acid levels [3]: more effective than DNA and RNA

Nc1ncnc2nc[nH]c12 [adenine]
toxicity [4]: can crystallize to form kidney stones | uricosuric effect / uric acid levels in the blood [3]: raised uric acid levels in the blood

Nc1nc2nc[nH]c2c(=O)[nH]1 [guanine]
uricosuric effect / uric acid levels in the blood [3]: ineffective

Nc1nc2c(ncn2[C@@H]2O[C@H](CO)[C@@H](O)[C@H]2O)c(=O)[nH]1 [guanosine]
abilities to increase uric acid levels [3]: equivalent

O=c1[nH]cnc2nc[nH]c12 [hypoxanthine]
uricosuric effect / uric acid levels in the blood [3]: raised uric acid levels in the blood | effectiveness as precursor of uric acid ([3]; overall, of AMP, GMP and hypoxanthine): most effective precursor of uric acid

OC[C@H]1O[C@@H](n2cnc3c(O)ncnc32)[C@H](O)[C@@H]1O [inosine]
abilities to increase uric acid levels [3]: equivalent

O=c1[nH]c(=O)c2[nH]c(=O)[nH]c2[nH]1 [uric acid]
survival [5]: long time survival | solubility in water [6]: highly insoluble in water | inhibition of the oxidative reaction of peroxynitrite and luminol (chemiluminescence) ([1]; uric acid 10 µM, peroxynitrite 10 µM): about 99%

O=c1[nH]c(=O)c2[nH]cnc2[nH]1 [xanthine]
uricosuric effect / uric acid levels in the blood [3]: ineffective

(-) epicatechin gallate
inhibition of light, peroxynitrite as activator of luminol light ([1]; 1:10 dilution): 100% | inhibition of peroxynitrite-based luminol light [1]: about 50% | inhibition of light production, peroxynitrite as activator of luminol light ([1]; consecutive 10 fold dilution after 1:10): about 25% | relative antioxidant activity among the catechins tested [1]: second most active antioxidant | inhibition of SIN-1 activated luminol light [2, 7]: about 50% | inhibition of SIN-1 activated luminol light ([2]; 1:1000 dilution (stock 0.45 mMolar), listed as epicatechin gallate (-)): 60%

(-) epigallocatechin gallate
effect on light from peroxynitrite [1, 8]: stimulation of light | pattern with peroxynitrite based light compared with SIN-1 activated light ([1]; full strength and 10 fold dilutions): same pattern of behavior | relative antioxidant activity among the catechins tested [1]: weakest antioxidant tested | inhibition of SIN-1 activated luminol light ([2]; 1:10 dilution): 100% | effect on light from SIN-1 [2, 8]: stimulation of light | inhibition of SIN-1 activated luminol light ([2]; full strength): 100% | effect on SIN-1 activated luminol light ([2]; further dilution beyond 1:10): stimulate production of light
